The values that follow come from US20260109721A1, “IONIZABLE CATIONIC LIPIDS INCORPORATING SILICON: SYNTHESIS AND LNP FORMULATION” (priority 2023, published 2026).

Data set [1] deals with HeLa cells. The experiment in a line: Transfection efficiency with Luciferase (SecNLuc) mRNA, Nano-Glo assay (Method A). The note with it: Luc mRNA, 24 h, luminescence; for Transfection 10 ng mRNA: 10 ng mRNA/well; for Transfection 50 ng mRNA: 50 ng mRNA/well; for Transfection 100 ng mRNA: 100 ng mRNA/well. It is filed as cell-based. As for the experimental part:
(§1) The synthesized lipids were tested in term of in vitro transfection efficacy and toxicity on HeLa cells. In order to perform the mentioned biological tests, appropriate LNPs had to be formulated from the synthesized lipids. The formulation technique was different in Method A and B. The particle size, polydispersity index (PDI) and zeta potential of resulting LNPs were determined by means of Dynamic Light Scattering technique (DLS). Prior to biological testing the encapsulation efficiency (EE) of the loaded LNPs was determined by using RiboGreen RNA assay. In case of Method A Luc mRNA while in case of Method B GFP mRNA was transfected into the cells. In parallel with the transfection experiments, toxicity of the investigated LNPs was determined, in case of Method A resazurin assay while in case of Method B MTT assay was used. Additionally, the toxicity of the lipids was investigated on HepG2 cells and IC50 values were determined.
• 1. Prepare mRNA solution by adding 100 ng mRNA (SecNLuc, #P009024, RiboPro) to 5 μl Opti-MEM • multiply by number of wells, include different concentrations and add 10% extra • a standard set-up we use is 100 ng-50 ng-10 ng mRNA/well in triplicate, which would need […] mRNA (includes 10% extra)
• 2. (If applicable) Prepare different concentrations in Opti-MEM (for instance 100/50/10 ng). • 3. Add 10 μl to each well and mix carefully by pipetting. • 4. Mix by swirling the plate horizontally at modest speed. Reverse in direction 3 times. • 5. Incubate for 24 hours (incubator).
This protocol is applied to measure luciferase activity for secreted NanoLuc and is based on the protocol by Promega (Nano-Glo® Luciferase Assay System #N1110-1150). The protocol is designed for a 384-wells plate, but volumes can be changed accordingly for other plates.
• 1. Plate cells (HeLa) in 96-well plate, grow until 80% confluent and transfect with SecNanoLuc mRNA and incubate for the desired period (24 h). • 2. After incubation, the translated protein is accumulated in the medium. Transfer medium to a new plate or tubes. • 3. Transfer 12 μl of each sample to a black-walled, clear-bottom 384-well plate • Black-walled plates are important to prevent shine-through of luminescence from other wells; alternatively, multiple wells between samples can be left empty. • 4. Set-up plate reader • 5. Prepare the desired amount of Nano-Glo® Luciferase Assay Reagent by combining one volume of Nano-Glo® Luciferase Assay Substrate with 50 volumes of Nano-Glo® Luciferase Assay Buffer: • a. composition: 100 mM MES pH 6; 1 mM EDTA; […]; 150 mM KCl; 1 mM DTT; 35 mM Thiourea; • b. briefly spin tubes containing substrate in a microcentrifuge before use. • 6. Add and mix (by pipetting) 12 μl Nano-Glo® Luciferase Assay Reagent per well • Wait approximately 3 minutes before measuring luminescence. […] Measure luminescence in plate reader using standard protocol luciferase (this includes mixing sample in plate reader)

Data set [2] has as its system HeLa cells. The experiment in a line: Cell viability assessment with resazurin assay (Method A). The note with it: human. It is filed as cell-based. As for the experimental part:
as §1
This protocol is used to determine the metabolic activity of cells as a measure for cell viability after exposure to potentially toxic substances. Resazurin is converted in mitochondria by reduction to resorufin, which has a much higher fluorescence at ˜600 nm compared to unconverted resazurin. A lower amount/percentage of conversion is correlated with reduced cellular metabolism and indirectly to cellular death and toxicity. Care must be taken with interpretation of the read-out, as 50% reduction in resazurin conversion may mean 50% reduction of cellular metabolism of 100% alive cells, or 50% of cells dead, and any combination in between.
• 1. Prepare 0.25 mg/ml stock solution resazurin in fresh cell culture medium. Resazurin is auto-reducing over time in solution, especially in medium, and fresh stocks should be prepared every 2-3 days. Stocks should be stored at 4° C. and protected from light. For HeLa cells, DMEM/F12 with 10% FCS is used. • 2. Dilute stock solution 10× in fresh cell culture medium to 0.025 mg/ml->ready for application on cells. For HeLa cells, DMEM/F12 with 10% FCS is used. • 3. Collect 96-well plate and replace cell-culture spent medium with 100 μl per well resazurin solution. Add some resazurin solution for background measurement in wells not containing cells. • 4. Incubate for 50 minutes in incubator at 37° C., 5% CO2, 95% RH. • 5. Transfer resazurin solution to a fresh 96- or 384-well plate. • 6. Measure in plate reader using 540/25 nm (excitation) and 610/40 nm (emission) using standard settings (PTM low/OD-1.0). • 7. Subtract the average background measurement from all samples. Set the average of the negative controls (well receiving OptiMEM only during transfection) to 100% and express all values as percentage of the control activity. Typically, at lower levels of treatment, elevation of metabolic activity is shown, whereas for toxic substances, at toxic concentrations sigmoidal curves can be obtained, with lower activity indicating higher toxicity.

Take `C#CCN(C)CCCCCCO[Si](C)(C)OC(CCCCCCC/C=C\C/C=C\CCCCC)OCCCCCCCC/C=C\C/C=C\CCCCC` (centres unmarked) [Example 67, (20Z,23Z)-10-((8Z,11Z)-heptadeca-8,11-dien-1-yl)-N,8,8-trimethyl-N-(prop-2-yn-1-yl)-7,9,11-trioxa-8-silanonacosa-20,23-dien-1-amine]: in data set [1], the “Transfection 10 ng mRNA” value is 2.42E+04, the “Transfection 50 ng mRNA” value worked out at 4.02E+05 and the “Transfection 100 ng mRNA” value is given as 1.79E+06. Besides, in data set [2], the “Cell Viability % (Average metabolic rate over all doses, Resazurin)” value (from here on “Cell Viability %”) is on record as 94%.

For the molecule `CCCCC/C=C\C/C=C\CCCCCCCCOC(CCCCCCC/C=C\C/C=C\CCCCC)O[Si](C)(C)OCCCCCCN(C)Cc1cn(C2[C@H](O)O[C@H](CO)[C@@H](O)[C@@H]2O)nn1` (stereo partly drawn) [Example 68, (4R,5S,6R)-3-(4-((22Z,25Z)-12-((8Z,11Z)-heptadeca-8,11-dien-1-yl)-2,10,10-trimethyl-9,11,13-trioxa-2-aza-10-silahentriaconta-22,25-dien-1-yl)-1H-1,2,3-triazol-1-yl)-6-(hydroxymethyl)tetrahydro-2H-pyran-2,4,5-triol], in data set [1], the “Transfection 10 ng mRNA” value was 2.74E+02, the “Transfection 50 ng mRNA” value is reported as 1.30E+03 and the “Transfection 100 ng mRNA” value was found to be 7.84E+03. The “Cell Viability %” value in data set [2] is reported as 92%.

Regarding `CCCCC/C=C\C/C=C\CCCCCCCCOC(CCCCCCC/C=C\C/C=C\CCCCC)O[Si](C)(C)OCCCCCCN1CCN(CCCCCCO[Si](C)(C)OC(CCCCCCC/C=C\C/C=C\CCCCC)OCCCCCCCC/C=C\C/C=C\CCCCC)CC1` (centres unmarked) [Example 70, 1,4-bis((20Z,23Z)-10-((8Z,11Z)-heptadeca-8,11-dien-1-yl)-8,8-dimethyl-7,9,11-trioxa-8-silanonacosa-20,23-dien-1-yl)piperazine], in data set [1], the “Transfection 10 ng mRNA” value came out at 6.46E+02, the “Transfection 50 ng mRNA” value is 5.40E+03 and the “Transfection 100 ng mRNA” value turned out to be 2.07E+04. In addition, the “Cell Viability %” value in data set [2] was 99%.

For `CCCCC/C=C\C/C=C\CCCCCCCCOC(CCCCCCC/C=C\C/C=C\CCCCC)O[Si](C)(C)OCCCCCCN(CCO)CCN(CCO)CCCCCCO[Si](C)(C)OC(CCCCCCC/C=C\C/C=C\CCCCC)OCCCCCCCC/C=C\C/C=C\CCCCC` (centres unmarked) [Example 71, (26Z,29Z)-16-((8Z,11Z)-heptadeca-8,11-dien-1-yl)-3-((20Z,23Z)-10-((8Z,11Z)-heptadeca-8,11-dien-1-yl)-8,8-dimethyl-7,9,11-trioxa-8-silanonacosa-20,23-dien-1-yl)-6-(2-hydroxyethyl)-14,14-dimethyl-13,15,17-trioxa-3,6-diaza-14-silapentatriaconta-26,29-dien-1-ol], in data set [1], the “Transfection 10 ng mRNA” value came to 3.24E+04, the “Transfection 50 ng mRNA” value is on record as 9.78E+05 and the “Transfection 100 ng mRNA” value amounted to 5.19E+06. Besides, the “Cell Viability %” value in data set [2] was 85%.

Turning to `CCCCCCCC/C=C\CCCCCCCC(OCC(CCCCCCCC)SCCCCC)O[Si](C)(C)OCCCCCCN(CCO)CCO` (centres unmarked) [Example 72, (Z)-13-(heptadec-8-en-1-yl)-3-(2-hydroxyethyl)-11,11-dimethyl-16-octyl-10,12,14-trioxa-17-thia-3-aza-11-siladocosan-1-ol], in data set [1], the “Transfection 10 ng mRNA” value stood at 2.05E+03, the “Transfection 50 ng mRNA” value came to 8.79E+04 and the “Transfection 100 ng mRNA” value worked out at 3.60E+05. In data set [2], the “Cell Viability %” value came to 107%.

With `CCCCCCCC/C=C\CCCCCCCC(OCC(CCCCCCCC)SCCCCCCCCCC)O[Si](C)(C)OCCCCCCN(CCO)CCO` (centres unmarked) [Example 73, (Z)-13-(heptadec-8-en-1-yl)-3-(2-hydroxyethyl)-11,11-dimethyl-16-octyl-10,12,14-trioxa-17-thia-3-aza-11-silaheptacosan-1-ol], in data set [1], the “Transfection 10 ng mRNA” value was 6.90E+01, the “Transfection 50 ng mRNA” value amounted to 9.88E+02 and the “Transfection 100 ng mRNA” value was 4.08E+03. Further, the “Cell Viability %” value in data set [2] was found to be 107%.

With `CCCCCCCC/C=C\CCCCCCCC(OCCCCCCCCCCCC1CCCCC1)O[Si](C)(C)OCCCCCCN(CCO)CCO` (centres unmarked) [Example 74, (Z)-25-cyclohexyl-13-(heptadec-8-en-1-yl)-3-(2-hydroxyethyl)-11,11-dimethyl-10,12,14-trioxa-3-aza-11-silapentacosan-1-ol], in data set [1], the “Transfection 10 ng mRNA” value is given as 2.47E+03, the “Transfection 50 ng mRNA” value was 3.87E+04 and the “Transfection 100 ng mRNA” value turned out to be 1.11E+05. In data set [2], the “Cell Viability %” value stood at 107%.

For the molecule `CCCCCCCC/C=C\CCCCCCCC(OCCC(C)CCCC(C)CCCC(C)CCCC(C)C)O[Si](C)(C)OCCCCCCN(CCO)CCO` (centres unmarked) [Example 75, (Z)-13-(heptadec-8-en-1-yl)-3-(2-hydroxyethyl)-11,11,17,21,25,29-hexamethyl-10,12,14-trioxa-3-aza-11-silatriacontan-1-ol], in data set [1], the “Transfection 10 ng mRNA” value amounted to 1.68E+03, the “Transfection 50 ng mRNA” value is on record as 2.82E+04 and the “Transfection 100 ng mRNA” value came to 1.07E+05. The “Cell Viability %” value in data set [2] was found to be 120%.

Consider `CCCCCCCC/C=C\CCCCCCCC(OCCCCCCCCCCCCCCC(C)C)O[Si](C)(C)OCCCCCCN(CCO)CCO` (centres unmarked) [Example 76, (Z)-13-(heptadec-8-en-1-yl)-3-(2-hydroxyethyl)-11,11,29-trimethyl-10,12,14-trioxa-3-aza-11-silatriacontan-1-ol], for which, in data set [1], the “Transfection 10 ng mRNA” value is listed as 3.30E+03, the “Transfection 50 ng mRNA” value was 6.71E+04 and the “Transfection 100 ng mRNA” value was 3.34E+05. Also, the “Cell Viability %” value in data set [2] stood at 110%.

`CCCCC/C=C\C/C=C\CCCCCCCCOC(CCCCCCC/C=C\C/C=C\CCCCC)O[Si](C)(C)OCCCCCCN(C)[C@H](CO)Cc1ccccc1` (stereo partly drawn) [Example 77, (2S,23Z,26Z)-2-benzyl-13-((8Z,11Z)-heptadeca-8,11-dien-1-yl)-3,11,11-trimethyl-10,12,14-trioxa-3-aza-11-siladotriaconta-23,26-dien-1-ol]: in data set [1], the “Transfection 10 ng mRNA” value was found to be 3.44E+02, the “Transfection 50 ng mRNA” value was found to be 2.55E+03 and the “Transfection 100 ng mRNA” value came to 6.09E+03. The “Cell Viability %” value in data set [2] was found to be 112%.

Take `CCCCCCCC/C=C\CCCCCCCCOC(CCCCCCC/C=C\CCCCCCCC)O[Si](C)(C)OCCCCCCN(C)[C@H](CO)Cc1ccccc1` (stereo partly drawn) [Example 78, (2S,Z)-2-benzyl-13-((Z)-heptadec-8-en-1-yl)-3,11,11-trimethyl-10,12,14-trioxa-3-aza-11-siladotriacont-23-en-1-ol]: in data set [1], the “Transfection 10 ng mRNA” value came out at 2.45E+03, the “Transfection 50 ng mRNA” value was 1.55E+04 and the “Transfection 100 ng mRNA” value came to 3.54E+04. Also, the “Cell Viability %” value in data set [2] was determined as 121%.
